In PMC4558166, “Trametinib modulates cancer multidrug resistance by targeting ABCB1 transporter” (Oncotarget, 2015):

Target: ABCB1 (MDR1/P-glycoprotein) (Homo sapiens, UniProt P08183)
Test: Vi-sensitive ATPase stimulation in High Five insect cell membrane vesicles; also rhodamine […]/doxorubicin accumulation in ABCB1-overexpressing cells
Assay type: biochemical

ABCB1 (MDR1/P-glycoprotein), sequence (P08183 whole entry): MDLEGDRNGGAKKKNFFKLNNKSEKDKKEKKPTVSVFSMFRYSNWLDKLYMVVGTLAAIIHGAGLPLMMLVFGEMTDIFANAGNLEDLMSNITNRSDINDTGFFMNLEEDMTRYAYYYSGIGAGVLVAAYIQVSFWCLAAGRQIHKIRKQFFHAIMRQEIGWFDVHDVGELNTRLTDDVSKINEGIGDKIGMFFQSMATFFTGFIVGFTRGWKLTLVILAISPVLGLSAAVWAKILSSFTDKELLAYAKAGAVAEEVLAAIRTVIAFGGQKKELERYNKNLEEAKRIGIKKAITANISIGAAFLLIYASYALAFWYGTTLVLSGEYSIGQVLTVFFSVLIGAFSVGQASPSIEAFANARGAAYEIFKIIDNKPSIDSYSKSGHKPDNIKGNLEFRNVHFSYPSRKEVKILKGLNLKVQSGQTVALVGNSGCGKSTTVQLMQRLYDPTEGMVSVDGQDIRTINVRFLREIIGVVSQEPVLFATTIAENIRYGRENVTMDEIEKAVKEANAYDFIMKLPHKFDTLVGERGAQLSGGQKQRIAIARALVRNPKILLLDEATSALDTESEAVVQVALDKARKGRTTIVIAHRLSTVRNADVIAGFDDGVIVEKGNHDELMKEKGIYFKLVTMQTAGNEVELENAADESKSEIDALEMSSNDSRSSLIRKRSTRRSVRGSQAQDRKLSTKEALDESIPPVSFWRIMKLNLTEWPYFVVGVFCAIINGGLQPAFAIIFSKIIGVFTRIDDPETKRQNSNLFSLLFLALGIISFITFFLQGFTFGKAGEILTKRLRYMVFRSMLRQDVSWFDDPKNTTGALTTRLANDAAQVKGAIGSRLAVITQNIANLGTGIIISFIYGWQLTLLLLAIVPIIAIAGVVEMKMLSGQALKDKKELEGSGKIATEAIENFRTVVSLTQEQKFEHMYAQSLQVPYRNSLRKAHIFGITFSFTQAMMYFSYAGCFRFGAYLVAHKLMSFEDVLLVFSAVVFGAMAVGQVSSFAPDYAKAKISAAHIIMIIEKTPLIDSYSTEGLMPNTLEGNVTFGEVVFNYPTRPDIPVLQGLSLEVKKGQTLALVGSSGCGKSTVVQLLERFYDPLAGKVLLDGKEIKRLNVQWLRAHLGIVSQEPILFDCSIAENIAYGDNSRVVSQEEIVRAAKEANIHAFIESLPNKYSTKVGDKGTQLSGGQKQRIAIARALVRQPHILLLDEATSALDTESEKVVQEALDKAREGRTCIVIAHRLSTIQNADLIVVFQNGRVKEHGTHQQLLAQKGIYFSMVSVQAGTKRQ

In the case of `CC(=O)Nc1cccc(-n2c(=O)n(C3CC3)c(=O)c3c(Nc4ccc(I)cc4F)n(C)c(=O)c(C)c32)c1` [Trametinib], the EC50 is reported as 1020 nM.
